Reference: ChEMBL document CHEMBL1201862, “PubChem BioAssay data set” (2004)
Active and inactive are the calls of the source.

Legend:
Cytochrome P450 2D6 = Cytochrome P450 2D6 (Homo sapiens, UniProt P10635); experiment: qHTS Assay for Inhibitors and Substrates of Cytochrome P450 2D6. [Related pubchem assays: 410 ]; assay type: ADME; settings: read-out: Potency
Streptococcus = experiment: Luminescence Microorganism-Based Dose Response Follow up to Identify Compounds Cytotoxic to Streptococcus. [Related pubchem assays: 1677 (Project Summary), 1915, 1914, 1902 (Retest at Dose), 1900 (Counter Screen), 1662 (Primary HTS)]; assay type: functional, organism-based
[1] = target: Dual specificity tyrosine-phosphorylation-regulated kinase 1A (Rattus norvegicus, UniProt Q63470); assay type: biochemical, Homo sapiens
[2] = target: T1, Mitochondrial peptide methionine sulfoxide reductase (Bos taurus, UniProt P54149); assay type: functional;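 further: absorbance read-out, biochemical high-throughput dose-response screen for MsrA inhibitors, confirmatory; recombinant bovine MsrA coupled to E. coli TrxB with NADPH and selenocystamine; potency is for inhibitors of MsrA activity on DMSO substrate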
T1 sequence (P54149 whole entry): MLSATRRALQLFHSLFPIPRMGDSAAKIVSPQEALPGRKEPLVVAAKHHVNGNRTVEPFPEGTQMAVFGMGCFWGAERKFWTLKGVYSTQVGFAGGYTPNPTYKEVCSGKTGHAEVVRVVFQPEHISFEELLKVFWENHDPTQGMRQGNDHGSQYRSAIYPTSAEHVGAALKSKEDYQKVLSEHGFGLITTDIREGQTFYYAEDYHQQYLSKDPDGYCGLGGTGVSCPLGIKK

Cytochrome P450 3A4 = Cytochrome P450 3A4 (Homo sapiens, UniProt P08684); settings: read-out: Potency;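 further: confirmatory qHTS run detecting inhibitors and substrates of CYP3A4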
Sequence of Cytochrome P450 3A4 (P08684 whole entry): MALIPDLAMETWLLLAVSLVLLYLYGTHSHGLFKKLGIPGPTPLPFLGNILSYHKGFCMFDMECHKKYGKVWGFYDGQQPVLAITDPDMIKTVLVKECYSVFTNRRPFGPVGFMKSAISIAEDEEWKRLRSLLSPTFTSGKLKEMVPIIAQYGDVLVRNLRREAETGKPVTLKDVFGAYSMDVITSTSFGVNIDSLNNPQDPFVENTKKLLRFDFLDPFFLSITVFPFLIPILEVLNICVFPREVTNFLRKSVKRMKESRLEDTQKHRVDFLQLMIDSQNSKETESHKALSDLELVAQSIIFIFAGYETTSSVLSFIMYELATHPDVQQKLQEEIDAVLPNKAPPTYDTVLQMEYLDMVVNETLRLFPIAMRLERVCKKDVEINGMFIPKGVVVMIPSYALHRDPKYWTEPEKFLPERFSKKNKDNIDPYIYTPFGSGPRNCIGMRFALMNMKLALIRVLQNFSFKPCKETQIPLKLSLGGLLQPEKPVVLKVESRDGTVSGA

[3] = target: Luciferin 4-monooxygenase (Photinus pyralis, UniProt P08659); experiment: Counter Screen for Luciferase-based Assay Positives. [Related pubchem assays: 620, 618, 411 ]
Sequence of Luciferin 4-monooxygenase (P08659 whole entry): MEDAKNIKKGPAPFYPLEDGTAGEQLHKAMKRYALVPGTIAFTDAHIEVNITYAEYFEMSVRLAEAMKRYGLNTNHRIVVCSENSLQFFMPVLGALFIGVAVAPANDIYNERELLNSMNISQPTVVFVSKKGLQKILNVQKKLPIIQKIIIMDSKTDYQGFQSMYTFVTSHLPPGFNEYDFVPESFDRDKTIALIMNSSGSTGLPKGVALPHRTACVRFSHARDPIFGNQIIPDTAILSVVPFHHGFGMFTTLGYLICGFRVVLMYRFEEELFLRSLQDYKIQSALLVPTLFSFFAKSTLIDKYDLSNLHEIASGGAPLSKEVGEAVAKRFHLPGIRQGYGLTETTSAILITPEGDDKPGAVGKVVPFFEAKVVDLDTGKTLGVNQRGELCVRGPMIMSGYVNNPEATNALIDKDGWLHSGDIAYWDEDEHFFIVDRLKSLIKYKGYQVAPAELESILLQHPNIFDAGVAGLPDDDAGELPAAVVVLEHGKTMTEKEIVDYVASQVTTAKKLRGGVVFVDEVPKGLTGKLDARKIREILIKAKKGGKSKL

HT-1080 = experiment: cytotoxicity in HT1080 fibrosarcoma cells, cell-based, fluorescence readout (AID 620); assay type: functional; settings: Homo sapiens
[4] = target: Eukaryotic translation initiation factor 4H (Homo sapiens, UniProt Q15056); experiment: human eIF4H binding inhibitors, primary screen, translation initiation inhibitor project, biochemical, uHTS, fluorescence polarization (AID 2012)
[5] = target: Polyadenylate-binding protein 1 (Homo sapiens, UniProt P11940); experiment: PABP poly(A) RNA binding inhibitors, primary screen, biochemical, fluorescence polarization, uHTS (AID 2014)
Sequence of Polyadenylate-binding protein 1 (P11940 whole entry): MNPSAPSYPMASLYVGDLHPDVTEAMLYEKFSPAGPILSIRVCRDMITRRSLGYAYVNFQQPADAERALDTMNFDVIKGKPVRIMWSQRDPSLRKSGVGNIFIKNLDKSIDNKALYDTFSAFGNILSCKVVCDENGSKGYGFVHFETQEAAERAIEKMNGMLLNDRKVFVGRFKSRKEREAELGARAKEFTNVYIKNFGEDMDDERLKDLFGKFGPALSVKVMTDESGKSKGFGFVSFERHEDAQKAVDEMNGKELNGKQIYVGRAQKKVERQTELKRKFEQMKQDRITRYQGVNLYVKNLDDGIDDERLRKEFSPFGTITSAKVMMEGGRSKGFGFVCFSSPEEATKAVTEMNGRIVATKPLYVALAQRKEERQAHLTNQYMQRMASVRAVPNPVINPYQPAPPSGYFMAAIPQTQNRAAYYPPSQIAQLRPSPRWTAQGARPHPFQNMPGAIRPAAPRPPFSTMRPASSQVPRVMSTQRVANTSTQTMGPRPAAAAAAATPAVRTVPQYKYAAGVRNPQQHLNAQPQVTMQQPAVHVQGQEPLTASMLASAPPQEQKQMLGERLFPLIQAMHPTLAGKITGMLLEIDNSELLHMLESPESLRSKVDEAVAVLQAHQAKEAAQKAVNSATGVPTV

Sequence of Cytochrome P450 2D6 (P10635 whole entry): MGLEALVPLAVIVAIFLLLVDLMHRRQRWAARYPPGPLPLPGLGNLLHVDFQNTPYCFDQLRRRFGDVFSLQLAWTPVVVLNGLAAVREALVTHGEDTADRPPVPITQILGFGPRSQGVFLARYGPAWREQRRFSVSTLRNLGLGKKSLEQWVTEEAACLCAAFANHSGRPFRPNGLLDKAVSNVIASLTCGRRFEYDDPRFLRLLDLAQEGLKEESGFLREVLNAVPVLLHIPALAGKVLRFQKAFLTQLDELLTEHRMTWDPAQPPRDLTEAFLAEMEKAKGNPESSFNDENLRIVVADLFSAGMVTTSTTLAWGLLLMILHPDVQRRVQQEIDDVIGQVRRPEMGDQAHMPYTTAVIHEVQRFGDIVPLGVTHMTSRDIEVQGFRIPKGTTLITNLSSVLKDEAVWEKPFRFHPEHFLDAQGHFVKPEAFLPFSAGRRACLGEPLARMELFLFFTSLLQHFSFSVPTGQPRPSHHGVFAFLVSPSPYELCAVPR

SMILES: CC[C@@H]1[C@H]2CCCCN3[C@@H]2[C@@H](C[C@H]3[C@@H]2C[C@H](C)C(=O)O2)[C@@H]2[C@H]1OC(=O)[C@H]2C
- AC50 (Cytochrome P450 2D6): 10 µM (inconclusive)

SMILES: O=C(c1ccc(OC(F)(F)F)cc1)n1c2ccccc2c2ccccc21
- EC50 (Streptococcus): > 500 µM (not active)

SMILES: COc1cc2c(cc1O)CC1c3c(cc(O)c(OC)c3-2)CCN1C (centres undefined)
- AC50 [1]: 3.83 µM (active)
- IC50 [2]: 53.9 µM (inactive)
- AC50 (Cytochrome P450 3A4): 25.1 µM (inconclusive)

SMILES: COc1ccc(-c2cc(C(=O)O)c(C)o2)cc1OC
- EC50 [3]: 4.68 µM (active)
- EC50 (HT-1080): > 50 µM (not active)

SMILES: CCCCn1cc[n+](-c2nc3c([N+](=O)[O-])cccc3n2C)c1
- IC50 [4]: > 100 µM (inactive)
- IC50 [5]: 4.55 µM (active)
